Results on 9 molecules are retold here after PubChem BioAssay (NCI).

Molecules are shown by their SMILES.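 How tested: cells in 96-well plates exposed to compound for 48 hours at five concentrations. GI50 marks 50% less growth. TGI: concentration producing complete growth inhibition.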

Experiment in all cases: DTP human tumour cell line panel, 48 h
Test [1] concerns KM12 colon.
Test [2] has as its system TK-10 renal.
Test [3] has as its system 786-0 renal.
The test system of test [4] is HOP-92 NSCLC.
Test [5] concerns SK-MEL-5 melanoma.
Test [6] has as its system SK-OV-3 ovarian.
The test system of test [7] is U251 CNS.
Test [8] deals with SNB-75 CNS.
Test [9] deals with OVCAR-5 ovarian.
The test system of test [10] is EKVX NSCLC.

Consider `O=C(Cn1ccnc1[N+](=O)[O-])NCc1ccc(F)cc1`, for which the TGI in test [1], in test [2], in [3], in test [4], in test [5] and in [6] was greater than 100 µM each time. The TGI in test [7], in test [8], in test [9] and in [10] was greater than 100 µM throughout.

In the case of `O=c1ccc(=O)c2c1c1[nH]c3ccccc3c1c1c(=O)c3ccccc3c(=O)c21`, the TGI in test [1], in test [2], in [3], in [4], in test [5] and in test [6] was greater than 10 µM in each case. The concentration for total growth inhibition (TGI) in test [7], in test [8], in test [9] and in [10] was greater than 10 µM each time.

Turning to `COc1ccc(C2=NOC3=c4ccccc4=CSC3=C2c2ccccc2)cc1`, the GI50 (in general, the concentration giving 50% growth inhibition) is 57.7 µM in [1]; 54 µM in test [2]; 27.5 µM in test [3]; 23.6 µM in test [4]; 16.5 µM in test [5]; greater than 100 µM in test [6]. In addition, the GI50 in [7] was 25.2 µM; in test [8] it was greater than 100 µM; in [9], 80.1 µM; in test [10], 94 µM. The TGI (usually the concentration at which net growth stops) is greater than 100 µM in test [1]; greater than 100 µM in [2]; greater than 100 µM in test [3]; 83.2 µM in test [4]; 39.7 µM in test [5]; greater than 100 µM in test [6]. Besides, the TGI in test [7], in test [8], in [9] and in test [10] was greater than 100 µM each time.

Consider `O=[N+]([O-])/C(=C/C=C/c1ccccc1)c1ccccc1`, for which the GI50 in test [1] is 2.04 µM; in test [2], 2.04 µM; in test [3], 1.81 µM; in test [4], 1.54 µM; in test [5], 3.16 µM; in test [6], 12 µM. The GI50 is 1.67 µM in test [7], 2.22 µM in [8], 2.38 µM in test [9] and 6.03 µM in test [10]. In addition, the TGI was 4.29 µM in test [1]; 4.46 µM in [2]; 3.4 µM in test [3]; 3.8 µM in test [4]; 12.1 µM in [5]; 24.4 µM in [6]. The TGI in [7] stood at 3.17 µM; in test [8], 7.27 µM; in test [9] it was 6.06 µM; in [10] it was 16.3 µM.

Take `O=C(NCCNC1=CC(=O)c2nc3ccccc3c3ccnc1c23)c1cnccn1`: the GI50 in [1] was 11.2 µM; in [2], 10.3 µM; in test [3] it was 36.7 µM; in test [4] it was 16.1 µM; in [5] it was 54.7 µM; in test [6], greater than 100 µM. The GI50 is 31 µM in [7], greater than 100 µM in [8], greater than 100 µM in test [9] and greater than 100 µM in test [10]. Also, the TGI was 63.4 µM in test [1]; 37.2 µM in [2]; greater than 100 µM in test [3]; greater than 100 µM in test [4]; greater than 100 µM in test [5]; greater than 100 µM in test [6]. The TGI in test [7], in [8], in test [9] and in test [10] was greater than 100 µM each time.

With `C=C(c1ccc(C(=O)NCCCn2ccnc2)cc1)c1cc2c(cc1C)C(C)(C)CCC2(C)C`, the GI50 in test [1] is 0.37 µM; in test [2], 2.97 µM; in [3], 1.94 µM; in [4] it was 1.62 µM; in test [5], 1.14 µM; in [6] it was 2.09 µM. Also, the GI50 was 0.288 µM in test [7], 2.46 µM in [8], 0.953 µM in [9] and 4.84 µM in test [10]. The TGI in test [1] is greater than 50.6 µM; in test [2], 7.87 µM; in [3] it was 5.45 µM; in test [4] it was 7.26 µM; in test [5], 2.43 µM; in test [6], 5.59 µM. Further, the TGI is 3.29 µM in [7], 7.82 µM in test [8], 12.7 µM in [9] and greater than 100 µM in [10].

As to `CSc1ccc2c(c1)N(CCCN(C)C)c1ccccc1S2`, the TGI was 24.9 µM in [1]; 28.3 µM in test [2]; 28.5 µM in test [3]; 26.8 µM in [4]; 25.4 µM in [5]; 29.4 µM in test [6]. Besides, the TGI worked out at 27.1 µM in test [7], 20.8 µM in test [8], 30.9 µM in test [9] and 35.1 µM in test [10].

Regarding `Fc1nc(Sc2ncnc3nc[nH]c23)nc(-c2c3ccccc3c3sc4ccccc4n23)n1`, the total growth inhibition concentration (TGI) in test [1], in test [2], in [3], in test [4], in [5] and in [6] was greater than 100 µM in each case. The TGI in test [7], in test [8], in test [9] and in test [10] was greater than 100 µM each time.

Turning to `O=C([CH-]C(=O)c1ccccc1)c1ccccc1.[CH2-]C.[CH2-]C.[Tl+3]`, the GI50 in [1] was 49.6 µM; in [2] it was 55 µM; in test [3], 19.2 µM; in test [4] it was 21.6 µM; in [5] it was 16.5 µM; in test [6], 32.5 µM. Besides, the GI50 in [7] is 11.8 µM; in test [8] it was 25.2 µM; in [9], 40.5 µM; in test [10] it was 19.7 µM. Further, the TGI was greater than 100 µM in test [1]; greater than 100 µM in [2]; greater than 100 µM in test [3]; greater than 72.8 µM in test [4]; 50.1 µM in test [5]; greater than 100 µM in [6]. For the same molecule, the TGI is greater than 100 µM in [7], greater than 100 µM in test [8], greater than 100 µM in [9] and 80.1 µM in [10].
